Laboratory results published in PMC8967716, “Inhibition of calcium-triggered secretion by hydrocarbon-stapled peptides” (Nature, 2022).
“And” between values parts separate entries of the source, which are not always exact repeats. Equal values may be shown once. “Also recorded” adds a separate entry of the source. Positions of bridges follow the written chain, without caps; N, C: chain ends. Non-standard residues stand in square brackets, D forms with d. Residues, ends and D or L forms follow the SMILES beside them. S5 = C=CCCC[C@](C)(N)C(=O)O

What was measured:
[1] = target: SP9–Cy3 (hydrocarbon-stapled SNAP-25A fragment SP9 labelled with Cy3 at the C terminus); assay: fluorescence polarisation; bulk fluorescence anisotropy; 10 nM Cy3-labelled peptide mixed with varying concentrations of unlabelled C2B domain; TBS (20 mM Tris, pH 7.5, 150 mM NaCl, 0.5 mM TCEP), 27.2 °C; Hill equation fit with the Hill coefficient constrained to 1
airway lumenal mucus = assay: Airway lumenal mucus occlusion in peptide-treated mice; details: IL-13 metaplasia, 200 μM peptide by microsprayer 30 min before methacholine; sections at 500 µm intervals; each value one mouse
[2] = target: airway SNAREs, Syt2, Munc13-2*, Munc18-2, NSF and αSNAP (Rattus norvegicus, UniProt P29101); assay: Single-vesicle content mixing assay, complete reconstitution; assay type: biochemical
Sequence of airway SNAREs, Syt2, Munc13-2*, Munc18-2, NSF and αSNAP (P29101 whole entry): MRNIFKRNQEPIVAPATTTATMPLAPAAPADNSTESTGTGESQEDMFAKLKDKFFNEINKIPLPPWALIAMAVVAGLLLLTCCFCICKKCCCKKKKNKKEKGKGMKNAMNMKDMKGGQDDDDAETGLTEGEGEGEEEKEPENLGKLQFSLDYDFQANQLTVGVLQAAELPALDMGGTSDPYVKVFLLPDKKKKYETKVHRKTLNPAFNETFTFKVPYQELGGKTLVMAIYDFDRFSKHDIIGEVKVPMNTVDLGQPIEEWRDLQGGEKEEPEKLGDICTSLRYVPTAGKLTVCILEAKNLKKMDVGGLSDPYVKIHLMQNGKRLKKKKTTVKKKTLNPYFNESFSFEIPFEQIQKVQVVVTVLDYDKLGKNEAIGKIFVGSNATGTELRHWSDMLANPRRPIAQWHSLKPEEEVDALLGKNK
Method: For the complete reconstitution (Fig. 3), to form airway SM vesicles with reconstituted Stx3–Munc18-2 complex, we added the ‘disassembly factors’ (1 μM Munc18-2, 0.5 μM NSF, 5 μM αSNAP, 3 mM ATP and 3 mM Mg^2+) to tethered airway PM vesicles (Fig. 3b), according to previous work with neuronal proteins. This procedure results in tethered SM vesicles.

[3] = target: Syt1 C2B(QM) quintuple mutant (Rattus norvegicus, UniProt P21707, E295A/R281A/R398A/R399A/Y338W); assay: Bulk fluorescence anisotropy binding; details: Cy3-labelled SP9, fluorescence anisotropy
Sequence of Syt1 C2B(QM) quintuple mutant (P21707 271-421 R281A/E295A/Y338W/R398A/R399A): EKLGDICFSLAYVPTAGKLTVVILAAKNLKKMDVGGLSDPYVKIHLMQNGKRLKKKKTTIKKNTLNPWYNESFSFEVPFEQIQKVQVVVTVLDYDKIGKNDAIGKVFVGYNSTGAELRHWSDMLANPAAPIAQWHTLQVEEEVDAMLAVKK

airway SNAREs alone = assay: Single-vesicle content mixing assay, airway SNAREs alone (VAMP8 vesicles); details: for Ca2+ independent fusion per sec: ED Fig 7k
[4] = tested on: MUC5AC secretion from primary human airway epithelial (HAE) cells; assay: Mucin-secretion assay in HAE cells; details: 10 μM peptide 30 min; for ratio of experimental to baseline MUC5AC secretion, mean: mean of n = 4–5 ALI cultures
[5] = tested on: reconstituted neuronal SNAREs (Stx1A, SNAP-25A, VAMP2) and Syt1; assay: Single-vesicle content mixing assay, neuronal SNAREs and Syt1; assay type: biochemical
neuronal SNAREs alone = assay: Single-vesicle content mixing assay, neuronal SNAREs alone (VAMP2 vesicles); assay type: biochemical
[6] = CD spectroscopy, α-helical content; assay type: physicochemical; details: 100 μM peptide in PBS pH 7.4, [φ]222obs relative to model helical decapeptide
Method: CD spectra were measured using the AVIV stop-flow CD spectropolarimeter at 190–250 nm using a cell with a 1 mm path length. […] For the correction of the baseline error, the signal from a blank run with PBS buffer was subtracted from all the experimental spectra. The α-helical content of each peptide was calculated by dividing the mean residue ellipticity [φ]222obs by the reported [φ]222obs for a model helical decapeptide.

[7] = target: reconstituted airway epithelial SNAREs (Stx3, SNAP-23, VAMP8) and Syt2 (Rattus norvegicus, UniProt P29101); assay: Single-vesicle content mixing assay, simple reconstitution (SR); details: for Ca2+ independent fusion per sec: ED Fig 7d
Sequence of reconstituted airway epithelial SNAREs (Stx3, SNAP-23, VAMP8) and Syt2 (P29101 whole entry, the tested form may be a part): as the sequence (P29101 whole entry) above

[8] = 10 μM peptide, each value one repeat experiment

Sequence of Syt2 C2B (C2B domain of synaptotagmin-2, amino acid range 272–422) (P29101 272-422): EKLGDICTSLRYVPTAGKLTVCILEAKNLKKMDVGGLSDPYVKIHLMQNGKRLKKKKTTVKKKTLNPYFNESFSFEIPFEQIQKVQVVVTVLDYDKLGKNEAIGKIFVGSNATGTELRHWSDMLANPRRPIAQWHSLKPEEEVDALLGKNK
Sequence of Syt1 C2B (C2B domain of synaptotagmin-1, amino acid range 271–421) (P21707 271-421): as the sequence (P21707 271-421 R281A/E295A/Y338W/R398A/R399A) above, with A11R, A25E, W68Y, A128R, A129R counted along it

## Syt2 C2B (C2B domain of synaptotagmin-2, amino acid range 272–422) (from UniProt P29101 272-422) (domain or fragment)
[1]
  Kd: 35 µM

## Syt1 C2B (C2B domain of synaptotagmin-1, amino acid range 271–421) (from UniProt P21707 271-421) (domain or fragment)
[1]
  Kd: 24 µM

## Ac-EESKDAGIRTLVMLDEQ-NH2 [P9]
Airway lumenal mucus
  sum of lumenal mucus cross-sectional area, caudal lobe of the right lung: 0.382 and 0.464 and 0.617 and 0.201 and 0.286 and 0.712 and 0.372

## CC[C@H](C)[C@H](NC(=O)[C@]1(C)CCCC=CCCC[C@](C)(NC(=O)[C@H](CCC(=O)O)NC(=O)[C@H](CCC(=O)O)NC(C)=O)C(=O)N[C@@H](CCCCN)C(=O)N[C@@H](CC(=O)O)C(=O)N[C@@H](C)C(=O)N1)C(=O)N[C@@H](CCCNC(=N)N)C(=O)N[C@@]1(C)CCCC=CCCC[C@@](C)(C(=O)N[C@@H](CC(=O)O)C(=O)N[C@@H](CCC(=O)O)C(=O)N[C@@H](CCC(N)=O)C(=O)N[C@@H](CS)C(N)=O)NC(=O)[C@H](CCSC)NC(=O)[C@H](C(C)C)NC(=O)[C@H](CC(C)C)NC1=O [SP9] (Ac-EE[S5]KDA[S5]IR[S5]LVM[S5]DEQC-NH2; staple 3-7, 10-14)
[2]; 10 μM SP9
  effect on Ca2+-independent fusion probability: only moderately reduced; also recorded: relatively modest
[2]; 10 μM SP9, 50 μM and 500 μM Ca2+
  effect on Ca2+-triggered fusion amplitude, cumulative fusion probability and synchronization: strongly inhibited
[2]; 10 μM SP9, each value one repeat experiment
  Ca2+ independent fusion per sec (average probability): 0.0004902 and 0.0004307 and 0.0004714 and 0.0004646 and 0.0003557 and 0.0002469
[2]; 10 μM SP9 added with SG vesicles, each value one repeat experiment
  Vesicle association: 88 and 78 and 74 and 91
[2]; 10 μM SP9 vs no peptide
  decrease in the Ca2+-triggered fusion amplitude: eight to tenfold decrease
  effect on vesicle association: no effect
[2]; 50uM Ca2+, 10 μM SP9, each value one repeat experiment
  triggered fusion accumulative probability (within 1 min): 0.0662 and 0.06402 and 0.09074
[2]; 500uM Ca2+, 10 μM SP9, each value one repeat experiment
  triggered fusion accumulative probability (within 1 min): 0.08824 and 0.05943 and 0.07879
[3]
  binding to quintuple mutant Syt1 C2B(QM): does not bind
Airway SNAREs alone; repeat 1
  Ca2+ independent fusion per sec: 0.0003451
Airway SNAREs alone; repeat 2
  Ca2+ independent fusion per sec: 0.000303
Airway SNAREs alone; repeat 3
  Ca2+ independent fusion per sec: 0.0004574
Airway SNAREs alone; repeat 4
  Ca2+ independent fusion per sec: 0.0004141
Airway SNAREs alone; SP9 vs no peptide
  effect on vesicle fusion without Syt2 (VAMP8 vesicles): no effect; also recorded: inhibitory effect of SP9 was eliminated
[4]; IL13+ATP (100 µM ATP)
  ratio of experimental to baseline MUC5AC secretion, mean: 3.4860
[4]; IL13, no ATP
  ratio of experimental to baseline MUC5AC secretion, mean: 0.7820
[4]; IL-13 cultures, mean of n = 8–10 ALI cultures
  ratio of baseline to reference wash MUC5AC secretion, mean: 0.7120
[5]; 10 μM peptide added with SV vesicles, each value one repeat experiment
  Vesicle association: 248 and 327 and 271
[5]; SP9 vs no peptide
  effect on Ca2+-triggered and Ca2+-independent fusion: reduced both Ca^2+-triggered fusion and Ca^2+-independent fusion
  effect on vesicle association: no effect
Neuronal SNAREs alone; [8]
  Ca2+ independent fusion per sec (average probability): 0.0007718 and 0.0006567 and 0.001053 and 0.0009453
  Vesicle association: 135 and 160 and 137
Neuronal SNAREs alone; SP9 vs no peptide
  effect on vesicle fusion without Syt1 (VAMP2 vesicles): no effect; also recorded: little effect
[6]
  helicity in solution: substantial helical content
[7]; 10 μM peptide added with SG vesicles, each value one repeat experiment
  Ca2+ independent fusion per sec (average probability): 0.0006901 and 0.0004797 and 0.000382 and 0.0006421
[7]; 10 µM peptide vs no peptide
  effect on Ca2+-independent fusion probability and Ca2+-triggered cumulative fusion probability: reduced both Ca^2+-triggered and, to a lesser degree, Ca^2+-independent fusion
[7]; repeat 1
  Ca2+ independent fusion per sec: 0.0006901
[7]; repeat 2
  Ca2+ independent fusion per sec: 0.0004797
[7]; repeat 3
  Ca2+ independent fusion per sec: 0.000382
[7]; repeat 4
  Ca2+ independent fusion per sec: 0.0006421
[7]; SP9 vs no peptide
  effect on vesicle association: no effect
